Test results: patent US6849607B2, “Galectin recognized photosensitizers for photodynamic therapy” (Health Research, Inc., priority 2001, dated 2005)

Tests used:
Molt-4 cells = test: Cellular localization by fluorescence microscopy in Molt-4 cells; format: cell-based, human
Method: For investigating the difference in sites of localization between the photosensitizers with and without carbohydrate moieties, the fluorescence light microscopy experiments were performed in Molt-4 and RIF tumor cell lines. In a typical experiment, cells were imaged at 100× on an inverted fluorescence microscope (Carl Zeiss Inc. Axiovert 35.W.Germany) with a charged-coupled device camera (Dage-MTI, model 104722-02). Images were captured and processed by computer using Image-1 image processing software (Universal Imaging Corp., version 4.0, WestChester, Pa.). The photosensitizer fluorescence was assessed by using 530-585 nm excitation and 615 nm long-pass filter to measure emission while 338-378 nm excitation for DPH, and a 450 nm emission filter for emission (400 nm dichroic). […] In addition, […]1-(4-trimethylammonium)-6-phenyl-1,3,5-hexatriene (TMA-DPH), a hydrophobic fluorescent probe which interacts with living cells by instantaneous incorporation into plasma membrane and becomes fluorescent (Illinger, D., and Kuhry, J. G., The Kinetic Aspects of Intracellular Fluorescence Labeling with TMA-DPH Support the Maturation Model for Endocytosis in L929 Cells, The Journal of Cell Biology, 125:783-794, 1994), was added for the last 5 min of the incubation, cells were washed once with PBS and transferred to a microscope slide for imaging. […]

J774A.1 cells [1] = test: In vitro photosensitizing efficacy in J774A.1 cells, high Gal-1 expression (MTT); format: cell-based
Method: (§1) For determining photosensitizing efficacy in B16-F1 and J774A.Cell were plated at 1×10^4 and 2×10^4 cells per well respectively in 96 well plates. After overnight incubation, compounds 1 and 4 at the same concentration (0-2 μM) were added. After further 3 hr incubation, cells were washed with PBS and irradiated with white light (0-4 joules). […] The cells were then incubated in complete media for 48 hrs and assayed for survival using the standard MTT assay.

[2] = test system: radiation induced fibrosarcoma (RIF) tumor cell; test: In vitro photosensitizing activity in RIF tumor cells (MTT); format: cell-based; conditions: 2.0 μM, light dose of 4 J/cm2
Method: Both cell lines are known to have some expression for Galectin-1 (Sacchettini, J. C., Baum, L. G. and Brewer, C. F., Multivalent Protein-carbohydrate Interactions. A New Paradiagm for Super Molecular Assembly and Signal Transduction, Biochemistry, 40:3009-3015, 2001). The Molt-4 cells were grown in RPMI 1640 5% FCS (Fetal calf serum) in 100% humidity with 5% CO2. Cells were transferred to phenol red free (PRF) RPMI 1640 media with 1% FCS and plated at 2.5×10^4 cells/well. After 3 hours incubation in the dark, the cells were washed once with PBS and re-suspended in prf RPMI 1640 with 1% FCS. These cells were then illuminated with a 1000W Quartz Halogen Lamp with IR and bandpass dichroic filters to allow light between 400 nm-700 nm, at a dose rate of 16 mW/cm^2 at 695 nm. The RIF tumor cells were grown in alpha-DMEM with 10% fetal calf serum, penicillin and streptomycin. Cells were maintained in 5% CO2, 95% air and 100% humidity. For determining the PDT efficacy, these cells were plated in 96-well plates and a density of 1×10^4 cells well in complete media. After overnight incubation to allow the cells to attach the photosensitizers 14 were individually added at variable concentrations. After a 3 hr incubation in the dark at 37° C., the cells were washed once with PBS, then irradiated with the same light source as above (Molt-4 procedure), and the optimal cell kill was obtained at a concentration of 1.0 μM. After PDT the cells were washed once and placed in complete media and incubated for 48 hrs. […] The 96-well plate was read on a microtiter plate reader (Miles Inc. Titertek Multiscan Plus MK II) at an absorbance of 560 nm. […]

B16-F1 cells = test: In vitro photosensitizing efficacy in B16-F1 cells, low Gal-1 expression (MTT); format: cell-based; conditions: free lactose (100 μM)
Method: as §1

J774A.1 cells [3] = test: Photosensitizer uptake in J774A.1 cells (fluorescence/μg protein); format: cell-based; conditions: 1.0 μM, 3 and 24 hrs
Method: In order to test the galectin-specificity of the carbohydrate conjugates, the uptake and photosensitizing efficacy of photosensitizers 1 and 4 was investigated in two cell lines; B16-F1 and J774A.1 known for low (15-20%) and high galectin-expression (80-85%) respectively 37. The cells were grown in DMEM with 10% FCS, maintained in 5% CO2, 95% air and 100% humidity. For uptake studies 1×10^6 cells were plated in 60 mm dishes. […] The cells were then gently removed from the dishes, 1.0 ml aliquots were transferred into 1 cm quartz cuvettes and their fluorescence was read on a PT1model ALBHA1 fluorimeter, at 701 nm using an excitation of wavelength of 414 nm. Protein determinations were done using Bio-rad protein assay, protein levels were determined from a standard curve. The data was represented as fluorescence/μg protein.

RIF tumors = test: In vivo photosensitizing efficacy (tumor re-growth assay) in mice bearing RIF tumors; design: species or system C3H/HEJ mice; conditions: 5.0 μM/kg; for mice tumor free on day 90: light 24 h post-injection, 6 mice/group; for mice tumor free on day 90 / in vivo PDT efficacy (in words): no free lactose
Method: Both conjugated and non-conjugated photosensitizers (1-4) were evaluated for their in vivo tumor response in C3H mice implanted with RIF tumors. In brief, C3H/HEJ mice were injected intradermally with 2×10^5 RIF cells in 30 μl HBSS w/o Ca^+2 and magnesium, into the flank and allowed to grow until they were 4-5 mm in diameter. The day before tumors were treatment size, the mice were injected with 0-5 μlmoles/kg of compounds 1-4. At 24 hours post-injection the mice were anesthetized with Ketamine and Xylazine, and restrained on plastic holders, treated with laser light from an argon pumped dye laser at 700 nm for a total fluence of 135 J/cm^2 at a fluence rate of 75 mW/cm^2. The mice (6 mice/group) were checked daily, the tumors were measured using two orthogonal measurements L and W (perpendicular to L) and the volumes were calculated using the formula V=LxW ^2/2 and recorded. Mice were considered cured if there was no palpable tumor at 90 days post PDT treatment.

Compound	fluorescence in presence of free lactose (Molt-4 cells; lactose 100 μM)	PDT efficacy on addition of free lactose (J774A.1 cells [1]; free lactose (100 μM))	phototoxicity compared to photosensitizer 1a (J774A.1 cells [1]; high Gal-1 expression (80-85%), 1.0 μM)	cell kill [2]	PDT efficacy on addition of free lactose (B16-F1 cells)	drug uptake (J774A.1 cells [3])	in vivo PDT efficacy, lactose injected immediately following the drug (RIF tumors; free lactose 100-fold excess)	in vivo PDT efficacy, lactose injected 1 hour prior to light treatment (RIF tumors; lactose 23 hr post-injection of the conjugate)	mice tumor free on day 90 (RIF tumors)	mice tumor free on day 90 (RIF tumors; listed as 4)	in vivo PDT efficacy (in words) (RIF tumors)	cellular localization (Molt-4 cells; incubated for 3 hrs)	in vivo PDT efficacy with and without lactose administration (RIF tumors)
C=C(C=CCO[C@@H]1O[C@H](CO)[C@@H](O[C@@H]2O[C@H](CO)[C@H](O)[C@H](O)[C@H]2O)[C@H](O)[C@H]1O)CN1C(=O)c2c3nc(cc4[nH]c(cc5nc(cc6[nH]c2c(c6C)C1=O)C(CC)=C5C)c(CC)c4C)C(C)C3CCC(=O)OC (mixture of isomers) [4a, Lactose-Chlorin conjugate joined with diene linkage]	No fluorescence was observed	almost completely inhibited	enhanced phototoxicity	100%	almost completely inhibited	increased uptake	significant decrease in PDT efficacy	quite effective	3/6	Three out of six	quite effective	–	–
Mesopurpurin-18-N-methyl-(2′-butadiene)imide [1a]	–	–	–	approximately 40%	–	–	–	–	–	–	inactive in vivo	intracellular localization	ineffective
